Data: patent US4064235A, “Dopamine derivative compounds, preparation thereof and medicine containing same” (Eisai Co., Ltd., priority 1975, dated 1977)

Key:
[1] = test system: renal blood flow rate; assay: Measurement of the renal blood flow increasing activity in anesthetized dogs; format: in vivo; conditions: for Duration Time of Activity / Renal Blood Flow Rate Increase Ratio (%): 1 mg/Kg/min into the crotch vein continuously over 3 minutes; for Renal Blood Flow Rate Increase Ratio (%): increase at highest flow rate relative to flow rate before administration; for intensity of the activity and activity duration compared with known compound A: dogs, 1 mg/Kg/min for 3 minutes
Description: Measurement of the renal blood flow increasing activity. Compounds Tested:
Crossbred adult dogs (irrespective of the sex) having a body weight of about 15 Kg were used.
The test animal was anesthetized by an intravenous injection of pentobarbital sodium salt (30 mg/Kg) and the abdominal region was fixed. The back region was opened and a probe of a rectangular wave electromagnetic flow meter (Model MF-26 manufactured by Nippon Koden K. K.) was attached to the artery of the left kidney to determine the renal blood flow rate (R. B. F.).
Each test compound was dissolved in distilled water and administered to the test animal from a vinyl resin fine tube inserted and fixed into the crotch vein. The amount administered was 1 mg/Kg/min. and the administration was conducted continuously over a period of 3 minutes.
The degree of increase of the renal blood flow rate by administration of the test compound was expressed in terms of the increase ratio (%), namely the ratio of the increase of the flow rate (when the flow rate was highest) to the flow rate before administration of the test compound. The duration of the activity was simultaneously examined.

[2] = test system: renal blood flow; conditions: cited from earlier work
[3] = test system: renal blood flow; assay: tracing experiment on renal blood flow promoting activity of isoleucyl dopamine; format: in vivo
Source text: Because of this specific activity, it has been considered to use dopamine for improving renal insufficiency accompanied by hyperpiesia or cardiac insufficiency and other similar diseases. However, since dopamine is promptly converted to norepinephrine or the like by metabolism and the activity is insufficient in duration, it has been difficult to put this compound into practical use.

Molecule | Duration Time of Activity ([1]; anesthetized dogs) [min] | Renal Blood Flow Rate Increase Ratio (%) ([1]; anesthetized dogs) | intensity of the activity and activity duration compared with known compound A [1] | activity of increasing the renal blood flow ([2]; literature: Circulation Research, vol. XVI, 1965) | renal blood flow rate change by administration ([1]; anesthetized dogs) | activity retention time compared with dopamine [3] | renal blood flow promoting activity [3] | durability of renal blood flow increasing activity compared with dopamine ([2]; literature: Am. Chem. So., 165, Meet. MEDI. 11, 1973)
CC(=O)O.NCC(=O)NCC(=O)N1CCC[C@H]1C(=O)NCCc1ccc(O)c(O)c1 [Compound E of Present Invention, N-Glycylglycyl-L-prolyl dopamine acetate] | 30 | 36 | excellent over the known compound A | – | – | – | – | –
CC(=O)O.CC(C)C[C@H](NC(=O)CNC(=O)CN)C(=O)NCCc1ccc(O)c(O)c1 [Compound D of Present Invention, N-Glycylglycyl-L-leucyl dopamine acetate] | 20 | 37 | excellent over the known compound A | – | – | – | – | –
NCCc1ccc(O)c(O)c1 [dopamine] | – | – | – | specific activity of increasing the renal blood flow | increased | – | – | –
CC(=O)O.CCC(C)C(N)C(=O)NC(C(=O)NCCc1ccc(O)c(O)c1)C(C)C (stereo not drawn) [Compound A of Present Invention, n-l-isoleucylvalyl dopamine acetate] | 10 | 33 | excellent over the known compound A | – | – | – | – | –
N-Glycyl-L-glutamyl dopamine acetate [Compound B of Present Invention] | 60 | 33 | excellent over the known compound A | – | – | – | – | –
CC(=O)O.CC[C@H](C)[C@H](N)C(=O)NCCc1ccc(O)c(O)c1 [Known Compound A, N-L-Isoleucyl dopamine acetate] | 6 | 10 | – | – | – | longer than that of dopamine | low | more durable than that of dopamine
CC(=O)O.NCC(=O)N1CCC[C@H]1C(=O)NCCc1ccc(O)c(O)c1 [Compound C of Present Invention, N-Glycyl-L-prolyl dopamine acetate] | 60 | 30 | excellent over the known compound A | – | – | – | – | –
